Here are results for 46 compounds from patent US20250222044A1, “LIMOSILACTOBACILLUS REUTERI GOLDGUT-LR99 AND APPLICATION THEREOF” (priority 2024, published 2025).

Where a SMILES comes first, the peptide text is derived from it.

The test system of the first test is Limosilactobacillus reuteri GOLDGUT-LR99. Nature of the test: Carbon source utilization and oxidation experiment (AN Biolog micro-pore plate). In kind it is cell-based. As to conditions: substrate utilization by the strain. As for the experimental part:
The AN Biolog micro-pore plate was used for measuring the utilization and oxidation conditions of different carbon sources of Limosilactobacillus reuteri GOLDGUT-LR99, the AN microplate used nutrients and biochemical reagents, and the method included the following steps: 1 mL of Limosilactobacillus reuteri GOLDGUT-LR99 bacterial liquid of the strain to be detected at the end of logarithmic growth was pipetted and centrifuged, then the supernatant was removed, the cells was washed three times with the seed liquid and suspended with 1 mL of the seed liquid, 50 μL of the suspension was taken and diluted in 10 mL of the seed liquid, the diluent was subpacked in a Biolog plate (100 μL/pore) after mixing uniformly, and the Biolog plate with the diluent was placed in 37° C. for anaerobic culture for 24 hours. After the culture was finished, OD590 and OD750 were detected by using microplate reader, the numerical values were recorded, and the utilization conditions of carbohydrate, organic acid and other substances of the Limosilactobacillus reuteri GOLDGUT-LR99 were calculated, wherein the calculation method was as follows: Y=OD590−OD750;
Regarding `OCC1OC(OC2OC(CO)C(O)C(O)C2O)C(O)C(O)C1O` [L-Trehalose], the “utilization effect (in words)” value was “better utilization effect”. As for `O=C(CO)[C@@H](O[C@H]1O[C@H](CO)[C@@H](O)[C@H](O)[C@H]1O)[C@H](O)[C@H](O)CO` [turanose], the “utilization effect (in words)” value was “better utilization effect”. In the case of `O=C(O)[C@@H](O)[C@@H](O)[C@H](O)[C@@H](O)C(=O)O` [D-Glucarate], the “utilization effect (in words)” value was “effectively utilize”.

The same test, now with this note: substrate utilization by the strain, 37° C. anaerobic culture for 24 hours.
Take `CC(=O)N[C@H]1C(O)O[C@H](CO)[C@@H](O)[C@@H]1O` (stereo partly drawn) [N-Acetyl-D-glucosamine]: the “Utilization (Y=OD590−OD750)” value is given as “− (when Y < 0.05, it is shown that the strain was not able to utilize this substance, marked as −)”. Turning to `CSCC[C@H](NC(=O)CN)C(=O)O` [Glycyl-L-methionine], the “Utilization (Y=OD590−OD750)” value is given as “− (when Y < 0.05, it is shown that the strain was not able to utilize this substance, marked as −)”. Still for that read-out and setting: under `CCCC(=O)C(=O)O` [α-Ketovaleric acid] stands “− (when Y < 0.05, it is shown that the strain was not able to utilize this substance, marked as −)”.

For the compound `CC(=O)O` [Ethanoic acid], the “Utilization (Y=OD590−OD750)” value is listed as “− (when Y < 0.05, it is shown that the strain was not able to utilize this substance, marked as −)”.

With L-Alanyl-L-M-threonine, the “Utilization (Y=OD590−OD750)” value is recorded as “− (when Y < 0.05, it is shown that the strain was not able to utilize this substance, marked as −)”. Regarding `O=P(O)(O)O[C@H]1O[C@H](CO)[C@@H](O)[C@H](O)[C@H]1O` [Glucose-1-phosphate], the “Utilization (Y=OD590−OD750)” value was “+ (when 0.1 > Y > 0.05, it is shown that the strain was able to better utilize this substance, marked as +)”. Consider `N[C@@H](CO)C(=O)O` [L-Serine], for which the “Utilization (Y=OD590−OD750)” value is recorded as “− (when Y < 0.05, it is shown that the strain was not able to utilize this substance, marked as −)”.

For `OCC1OC(OC2OC(CO)C(O)C(O)C2O)C(O)C(O)C1O` [L-Trehalose], the “Utilization (Y=OD590−OD750)” value is reported as “++ (when Y > 0.1, it is shown that the strain was able to effectively utilize this substance, marked as++)”. Turning to `CCC(=O)O` [Propionic acid], the “Utilization (Y=OD590−OD750)” value is reported as “− (when Y < 0.05, it is shown that the strain was not able to utilize this substance, marked as −)”. For `CSCC[C@H](N)C(=O)O` [L-Methionine], the “Utilization (Y=OD590−OD750)” value is on record as “− (when Y < 0.05, it is shown that the strain was not able to utilize this substance, marked as −)”. As to `C[C@H](N)C(N)=O` [L-Alanineamide], the “Utilization (Y=OD590−OD750)” value is listed as “++ (when Y > 0.1, it is shown that the strain was able to effectively utilize this substance, marked as++)”. `CO[C@H]1O[C@H](CO)[C@@H](O)[C@H](O)[C@H]1O` [α-Methyl-D-glucoside]: the “Utilization (Y=OD590−OD750)” value is listed as “− (when Y < 0.05, it is shown that the strain was not able to utilize this substance, marked as −)”. As for `OC[C@H]1O[C@@H](O[C@H]2[C@H](O)[C@@H](O)[C@H](O)O[C@@H]2CO)[C@H](O)[C@@H](O)[C@@H]1O` [D-Cellobiose], the “Utilization (Y=OD590−OD750)” value is “++ (when Y > 0.1, it is shown that the strain was able to effectively utilize this substance, marked as++)”. As to `COC(=O)CCC(=O)O` [Succinic acid methyl ester], the “Utilization (Y=OD590−OD750)” value is “− (when Y < 0.05, it is shown that the strain was not able to utilize this substance, marked as −)”. For `NCC(=O)N1CCC[C@H]1C(=O)O` [Glycylprolline] (H-Gly-Pro-OH), the “Utilization (Y=OD590−OD750)” value is “− (when Y < 0.05, it is shown that the strain was not able to utilize this substance, marked as −)”.

As to `O=C(O)C(O)C(O)C(=O)O` (stereo not drawn) [m-Tartaric acid], the “Utilization (Y=OD590−OD750)” value is “+ (when 0.1 > Y > 0.05, it is shown that the strain was able to better utilize this substance, marked as +)”.

Consider `OC[C@H]1O[C@@H](Oc2ccc(O)cc2)[C@H](O)[C@@H](O)[C@@H]1O` [Arbutin], for which the “Utilization (Y=OD590−OD750)” value is reported as “− (when Y < 0.05, it is shown that the strain was not able to utilize this substance, marked as −)”. Regarding Hexanediol, the “Utilization (Y=OD590−OD750)” value is reported as “− (when Y < 0.05, it is shown that the strain was not able to utilize this substance, marked as −)”. As for Maltotriose, the “Utilization (Y=OD590−OD750)” value is reported as “++ (when Y > 0.1, it is shown that the strain was able to effectively utilize this substance, marked as++)”. In the case of `OC[C@H]1O[C@H](O)[C@H](O)[C@@H](O)[C@@H]1O` [α-D-Glucose], the “Utilization (Y=OD590−OD750)” value is reported as “− (when Y < 0.05, it is shown that the strain was not able to utilize this substance, marked as −)”. Take `OC[C@H]1O[C@@H](n2cnc3c(O)ncnc32)[C@H](O)[C@@H]1O` [Inosine]: the “Utilization (Y=OD590−OD750)” value was “− (when Y < 0.05, it is shown that the strain was not able to utilize this substance, marked as −)”.

For `NC(=O)CCC(=O)O` [Succinamide acid], the “Utilization (Y=OD590−OD750)” value was “+ (when 0.1 > Y > 0.05, it is shown that the strain was able to better utilize this substance, marked as +)”.

In the case of 3-Methyl-D-4-glucose, the “Utilization (Y=OD590−OD750)” value was “++ (when Y > 0.1, it is shown that the strain was able to effectively utilize this substance, marked as++)”. In the case of `OC[C@H]1O[C@@H](O[C@@H]2[C@@H](CO)OC(O)(CO)[C@H]2O)[C@H](O)[C@@H](O)[C@H]1O` (mixture of isomers) [Lactulose], the “Utilization (Y=OD590−OD750)” value is given as “− (when Y < 0.05, it is shown that the strain was not able to utilize this substance, marked as −)”. As to `CC(C)[C@@H](C)/C=C/[C@@H](C)[C@H]1CC[C@H]2C3=CC=C4C[C@@H](O)CC[C@]4(C)[C@H]3CC[C@]12C` [Ergosterol], the “Utilization (Y=OD590−OD750)” value was “++ (when Y > 0.1, it is shown that the strain was able to effectively utilize this substance, marked as++)”. Take `O=c1ccn([C@@H]2O[C@H](COP(=O)(O)O)[C@@H](O)[C@H]2O)c(=O)[nH]1` [Uridine-5′-monophosphate]: the “Utilization (Y=OD590−OD750)” value is on record as “− (when Y < 0.05, it is shown that the strain was not able to utilize this substance, marked as −)”. Take `OC[C@H]1O[C@@](CO)(O[C@H]2O[C@H](CO)[C@@H](O)[C@H](O)[C@H]2O)[C@@H](O[C@H]2O[C@H](CO)[C@@H](O)[C@H](O)[C@H]2O)[C@@H]1O` [D-Melezitose]: the “Utilization (Y=OD590−OD750)” value is recorded as “− (when Y < 0.05, it is shown that the strain was not able to utilize this substance, marked as −)”.

As for `O=C[C@H](O)[C@@H](O)[C@@H](O)[C@H](O)C(=O)O` [D-Galacturonic acid], the “Utilization (Y=OD590−OD750)” value is “++ (when Y > 0.1, it is shown that the strain was able to effectively utilize this substance, marked as++)”. Consider `O=CC(=O)O` [Glyoxylic acid], for which the “Utilization (Y=OD590−OD750)” value is “+ (when 0.1 > Y > 0.05, it is shown that the strain was able to better utilize this substance, marked as +)”.

For `CC(=O)N[C@H]1C(O)O[C@H](CO)[C@H](O)[C@@H]1O` (stereo partly drawn) [N-Acetyl-D-galactosamine], the “Utilization (Y=OD590−OD750)” value was “− (when Y < 0.05, it is shown that the strain was not able to utilize this substance, marked as −)”. Same read-out and setting: under `OC[C@H]1O[C@@](CO)(O[C@H]2O[C@H](CO)[C@@H](O)[C@H](O)[C@H]2O)[C@@H](O[C@H]2O[C@H](CO)[C@@H](O)[C@H](O)[C@H]2O)[C@@H]1O` [Melezitose] stands “++ (when Y > 0.1, it is shown that the strain was able to effectively utilize this substance, marked as++)”; under `COC(C)=O` [Methyl acetate], “++ (when Y > 0.1, it is shown that the strain was able to effectively utilize this substance, marked as++)”; under L-Uracilic acid, “− (when Y < 0.05, it is shown that the strain was not able to utilize this substance, marked as −)”. Same read-out and setting: under `O=C1O[C@H](CO)[C@@H](O)[C@H](O)[C@H]1O` [D-Gluconolactone] stands “++ (when Y > 0.1, it is shown that the strain was able to effectively utilize this substance, marked as++)”. Regarding `O=C(O)[C@H]1OC(O)[C@H](O)[C@@H](O)[C@@H]1O` (stereo partly drawn) [D-Glucoronate], the “Utilization (Y=OD590−OD750)” value is “++ (when Y > 0.1, it is shown that the strain was able to effectively utilize this substance, marked as++)”. As to `CC(=O)C(=O)O` [Pyruvic acid], the “Utilization (Y=OD590−OD750)” value is “+ (when 0.1 > Y > 0.05, it is shown that the strain was able to better utilize this substance, marked as +)”. Take `O=C(O)C[C@@H](O)C(=O)O` [D-Malic acid]: the “Utilization (Y=OD590−OD750)” value is on record as “− (when Y < 0.05, it is shown that the strain was not able to utilize this substance, marked as −)”. Take `C[C@@H](O)[C@H](N)C(=O)O` [L-Threonine]: the “Utilization (Y=OD590−OD750)” value was “− (when Y < 0.05, it is shown that the strain was not able to utilize this substance, marked as −)”. The same measure, in the same setting: under L-Valine + L-M-Aspartamid acid stands “− (when Y < 0.05, it is shown that the strain was not able to utilize this substance, marked as −)”; under `O=C(O)[C@@H](O)[C@@H](O)[C@H](O)[C@@H](O)C(=O)O` [D-Glucarate], “++ (when Y > 0.1, it is shown that the strain was able to effectively utilize this substance, marked as++)”; under `C[C@H](O)[C@H](O)[C@@H](O)[C@@H](O)C=O` [L-Rhamnose], “++ (when Y > 0.1, it is shown that the strain was able to effectively utilize this substance, marked as++)”. Same read-out and setting: under `O[C@H]1[C@H](O)[C@@H](O)[C@H](O)[C@@H](O)[C@H]1O` [m-Inositol] stands “+ (when 0.1 > Y > 0.05, it is shown that the strain was able to better utilize this substance, marked as +)”; under `C[C@H](N)C(=O)O` [L-Alanine], “− (when Y < 0.05, it is shown that the strain was not able to utilize this substance, marked as −)”; under α-Succinic acid, “− (when Y < 0.05, it is shown that the strain was not able to utilize this substance, marked as −)”. Take D-Aminoglucuronate: the “Utilization (Y=OD590−OD750)” value is listed as “++ (when Y > 0.1, it is shown that the strain was able to effectively utilize this substance, marked as++)”.
